According to patent US5364861A, “Optical isomers of 7-[3-(1,1-dialkylmethyl-1-amino-1-pyrrolidinyl]-quinolones and naphthyridones as antibacterial agents” (Warner-Lambert Company, priority 1993, dated 1994):
In brackets after ≈: the same amount, converted by molar mass. Structures can show the parent of a compound that is named as a salt. Where two headings read alike, the source gives them in different places.

How the values were obtained:
[1] = system: Ent. cloacae MA2646; assay: in vitro antibacterial activity, microtitration dilution (MIC), Ent. cloacae MA2646; type: cell-based; conditions: Enterobacter cloacae, read-out: minimum inhibiting concentration (MIC)
Source text: (§1) The in vitro antibacterial activity is obtained when tested by the microtitration dilution method as described in Heifetz, et al., Antimicr. Agents & Chemother. 1974;6:124, which is incorporated herein by reference.
(§2) By use of the above methods, the following minimum inhibiting concentration values (MICs in μg/ml), PD50 's in mg/kg, no effect phototoxicity dose in mg/kg and the cytotoxicity IC50 in μg/mL were obtained for representative enantiomers of the invention and compounds of the prior art as shown in the table.

[2] = system: Esch. coli Vogel; assay: in vitro antibacterial activity, microtitration dilution (MIC), Esch. coli Vogel; type: cell-based; conditions: Escherichia coli, read-out: minimum inhibiting concentration (MIC)
Source text: as §1, §2

[3] = system: Klebs. pneumoniae MGH-2; assay: in vitro antibacterial activity, microtitration dilution (MIC), Klebs. pneumoniae MGH-2; type: cell-based; conditions: Klebsiella pneumoniae, MGH2, read-out: minimum inhibiting concentration (MIC)
Source text: as §1, §2

[4] = system: Prot. rettgeri M 1771; assay: in vitro antibacterial activity, microtitration dilution (MIC), Prot. rettgeri M 1771; type: cell-based; conditions: Providencia rettgeri, M1771, read-out: minimum inhibiting concentration (MIC)
Source text: as §1, §2

[5] = system: Pseud. aeruginosa UI-18; assay: in vitro antibacterial activity, microtitration dilution (MIC), Pseud. aeruginosa UI-18; type: cell-based; conditions: Pseudomonas aeruginosa, UI18, read-out: minimum inhibiting concentration (MIC)
Source text: as §1, §2

[6] = system: Staph. aureus H 228; assay: in vitro antibacterial activity, microtitration dilution (MIC), Staph. aureus H 228; type: cell-based; conditions: Staphylococcus aureus, H228, read-out: minimum inhibiting concentration (MIC)
Source text: as §1, §2

[7] = system: Staph. aureus UC-76; assay: in vitro antibacterial activity, microtitration dilution (MIC), Staph. aureus UC-76; type: cell-based; conditions: Staphylococcus aureus, UC76, read-out: minimum inhibiting concentration (MIC)
Source text: as §1, §2

[8] = system: Strep. faecalis MGH-2; assay: in vitro antibacterial activity, microtitration dilution (MIC), Strep. faecalis MGH-2; type: cell-based; conditions: Enterococcus faecalis, MGH2, read-out: minimum inhibiting concentration (MIC)
Source text: as §1, §2

[9] = system: Strep. pneumoniae SV-1; assay: in vitro antibacterial activity, microtitration dilution (MIC), Strep. pneumoniae SV-1; type: cell-based; conditions: Streptococcus pneumoniae, SV1, read-out: minimum inhibiting concentration (MIC)
Source text: as §1, §2

[10] = system: Strep. pyogenes C-203; assay: in vitro antibacterial activity, microtitration dilution (MIC), Strep. pyogenes C-203; type: cell-based; conditions: Streptococcus pyogenes, C203, read-out: minimum inhibiting concentration (MIC)
Source text: as §1, §2

[11] = in vivo; set-up: species or system mice; conditions: mouse, po
Experimental: The phototoxicity data is obtained using depilated mice. Compound was administered orally each day for four successive days, followed each day by 3 hours of […] radiation. The mice were examined for any positive signs (redness, erythema) relative to control animals. The no effect dose and the 50% effect dose were determined. By use of the above methods, the following minimum inhibiting concentration values (MICs in μg/ml), PD50 's in mg/kg, no effect phototoxicity dose in mg/kg and the cytotoxicity IC50 in μg/mL were obtained for representative enantiomers of the invention and compounds of the prior art as shown in the table.

[12] = cytotoxicity, colony reduction of hamster V-79 cells; type: cell-based; conditions: 3 hours treatment, colonies counted after 5 days, read-out: cytotoxicity IC50 (Cytotox)
Experimental: The cytotoxicity data is obtained using hamster V-79 cells. The cells were suspended in tissue culture medium and grown overnight. Cells were treated with drug for 3 hours, washed free of drug and then replated, and the colonies counted after 5 days. The concentration of drug that reduced colonies by 50% relative to control was recorded.
as §2

[13] = system: Esch. coli Vogel; assay: median protective dose in mice given lethal systemic infection, Esch. coli; type: in vivo; conditions: Escherichia coli, single dose at time of challenge, route not given, read-out: median protective dose (PD50)
Experimental: (§3) The in vivo activity is obtained when the compounds are tested according to the procedure of Miller, et al (Proc. Soc. Exp. Biol. Med. 1944;57:261). The median protective dose (PD50) was determined in mice given lethal systemic infections. Single doses of compound were given at time of challenge.
as §2
(§4) The in vivo data as PD50 's are reported below the line of MICs for the same compound.

[14] = system: Pseud. aeruginosa UI-18; assay: median protective dose in mice given lethal systemic infection, Pseud. aeruginosa; type: in vivo; conditions: Pseudomonas aeruginosa, UI18, Pseud. aeruginosa, single dose at time of challenge, route not given, read-out: median protective dose (PD50)
Experimental: as §3, §2, §4

[15] = system: Strep. pyogenes C-203; assay: median protective dose in mice given lethal systemic infection, Strep. pyogenes; type: in vivo; conditions: Streptococcus pyogenes, C203, Strep. pyogenes, single dose at time of challenge, route not given, read-out: median protective dose (PD50)
Experimental: as §3, §2, §4

Row | SMILES | MIC [1] [mg/L] | MIC [2] [mg/L] | MIC [3] [mg/L] | MIC [4] [mg/L] | MIC [5] [mg/L] | MIC [6] [mg/L] | MIC [7] [mg/L] | MIC [8] [mg/L] | MIC [9] [mg/L] | MIC [10] [mg/L] | NOAEL [11] [mg/kg] | CC50 at 3 h [12] [mg/L] | ED50 ([13]; first line below the MICs) [mg/kg] | ED50 ([13]; second line below the MICs) [mg/kg] | ED50 ([14]; first line below the MICs) [mg/kg] | ED50 ([14]; second line below the MICs) [mg/kg] | ED50 ([15]; first line below the MICs) [mg/kg] | ED50 ([15]; second line below the MICs) [mg/kg]
1 | CC(C)(N)C1CCN(c2nc3c(cc2F)c(=O)c(C(=O)O)cn3C2CC2)C1 (centres unmarked) [reference compound] | 0.1 (≈ 0.267 µM) | 0.1 (≈ 0.267 µM) | 0.2 (≈ 0.534 µM) | 0.4 (≈ 1.07 µM) | 1.6 (≈ 4.27 µM) | 0.05 (≈ 0.134 µM) | 0.013 (≈ 0.0347 µM) | 0.05 (≈ 0.134 µM) | 0.025 (≈ 0.0668 µM) | 0.025 (≈ 0.0668 µM) | 30 | 66 (≈ 176 µM) |  |  |  |  |  | 
2 | CC(C)(N)[C@@H]1CCN(c2c(F)cc3c(=O)c(C(=O)O)cn(C4CC4)c3c2Cl)C1 [Example 2, (R)-7-[3-(1-Amino-1-methylethyl-1-pyrrolidinyl]-8-chloro-1-cyclopropyl-6-fluoro-1,4-dihydro-4-oxo-3-quinolinecarboxylic acid, monohydrochloride] | 0.05 | 0.05 | 0.1 | 0.2 | 0.8 | 0.006 | ≤ 0.003 | 0.013 | ≤ 0.003 | ≤ 0.003 |  | 8 | 8 | 1 | 100 | 17 | 2 | 0.14
3 | CNC(C)(C)[C@@H]1CCN(c2c(F)cc3c(=O)c(C(=O)O)cn(C4CC4)c3c2Cl)C1 [Example 6, (R)-08-Chloro-1-cyclopropyl-6-fluoro-1,4-dihydro-7-{3-[1-methyl-1-(methylamino)ethyl]-1-pyrrolidinyl}-4-oxo-3-quinolinecarboxylic acid, monohydrochloride] | 0.2 | 0.2 | 0.4 | 0.4 | 3.1 | 0.013 | ≤ 0.003 | 0.025 | ≤ 0.003 | ≤ 0.003 |  |  | 11 | 2 |  |  | 3 | 0.5
4 | CC(C)(N)[C@@H]1CCN(c2cc3c(c(N)c2F)c(=O)c(C(=O)O)cn3C2CC2)C1 [Example 9, (R)-7-[3-(1-Amino-1-methylethyl)-1-pyrrolidinyl]-5-amino-1-cyclopropyl-6-fluoro-1,4-dihydro-4-oxo-3-quinolinecarboxylic acid] | 0.4 (≈ 1.03 µM) | 0.4 (≈ 1.03 µM) | 0.8 (≈ 2.06 µM) | 0.8 (≈ 2.06 µM) | 3.1 (≈ 7.98 µM) | 0.025 (≈ 0.0644 µM) | 0.006 (≈ 0.0154 µM) | 0.05 (≈ 0.129 µM) | 0.006 (≈ 0.0154 µM) | 0.006 (≈ 0.0154 µM) |  | 13 (≈ 33.5 µM) |  |  |  |  | 11 | 2
5 | COc1c(N2CC[C@@H](C(C)(C)N)C2)c(F)cc2c(=O)c(C(=O)O)cn(C3CC3)c12 [Example 7, (R)-7-[3-(1-Amino-1-methylethyl)-1-pyrrolidinyl]-1-cyclopropyl-6-fluoro-1,4-dihydro-8-methoxy-4-oxo-3-quinolinecarboxylic acid] | 0.1 (≈ 0.248 µM) | 0.1 (≈ 0.248 µM) | 0.2 (≈ 0.496 µM) | 0.4 (≈ 0.991 µM) | 1.6 (≈ 3.97 µM) | 0.013 (≈ 0.0322 µM) | ≤ 0.003 | 0.013 (≈ 0.0322 µM) | ≤ 0.003 | < 0.003 |  | 18 (≈ 44.6 µM) | 26 | 3 |  |  | 3 | 0.8
